Laboratory results as given in ChEMBL document CHEMBL4715869, “N-(Pyrimidin-2-yl)-1,2,3,4-tetrahydroisoquinolin-6-amine Derivatives as Selective Janus Kinase 2 Inhibitors for the Treatment of Myeloproliferative Neoplasms” (J Med Chem, 2020).
The source made the active and inactive calls. The rule behind the calls is not given here.

What was measured:
SET-2 [1] = assay: Induction of apoptosis in human SET-2 cells assessed as live cells at 0.4 uM incubated for 24 hrs by Annexin V/PI staining based flow cytometric analysis (reference value: 96.23 %); format: functional
[2] = tested on: Tyrosine-protein kinase JAK2 (Homo sapiens), O60674 [V617F]; assay: Inhibition of JAK2 V617F mutant in human SET-2 cells assessed as reduction in JAk2 phosphorylation after 2 hrs by Western blot analysis; format: cell-based; conditions: SET2, dose 1-1000 nM
SET-2 [3] = assay: Induction of apoptosis in human SET-2 cells assessed as early apoptotic cells at 0.8 uM incubated for 24 hrs by Annexin V/PI staining based flow cytometric analysis (reference value: 1.47 %); format: functional
[4] = Toxicity in NOD/SCID mouse xenografted with human SET2 cells assessed as animal death at 15 to 60 mg/kg, po qd administered for 16 days and measured after 36 days; format: organism-based; conditions: in vivo, 864 h, dose 15-60 mg/kg, time 36 day
SET-2 [5] = assay: Induction of apoptosis in human SET-2 cells assessed as necrotic cells at 0.8 uM incubated for 24 hrs by Annexin V/PI staining based flow cytometric analysis (reference value: 0.78%); format: functional
SET-2 [6] = assay: Antitumor activity against human SET2 cells xenografted in NOD/SCID mouse assessed as tumor growth inhibition at 60 mg/kg, po qd administered for 16 days and measured every 2 days relative to control; format: functional; conditions: SET-2, po, 384 h, time 16 day, read-out: TGI
SET-2 [7] = assay: Induction of apoptosis in human SET-2 cells assessed as live cells at 0.05 uM incubated for 24 hrs by Annexin V/PI staining based flow cytometric analysis (reference value: 96.23 %); format: functional
SET-2 [8] = assay: Induction of cell cycle arrest in human SET2 cells assessed as accumulation at G0/G1 phase incubated for 24 hrs by propidium iodide staining based flow cytometry; format: functional; conditions: dose 10-160 nM
SET-2 [9] = assay: Induction of apoptosis in human SET-2 cells assessed as early apoptotic cells at 0.4 uM incubated for 24 hrs by Annexin V/PI staining based flow cytometric analysis (reference value: 1.47 %); format: functional
SET-2 [10] = assay: Induction of apoptosis in human SET-2 cells assessed as necrotic cells at 1.6 uM incubated for 24 hrs by Annexin V/PI staining based flow cytometric analysis (reference value: 0.78%); format: functional
[11] = Tmax in male Sprague-Dawley rat at 5 mg/kg, po administered via gavage measured upto 24 hrs by LC/MS/MS analysis; format: ADME, organism-based; conditions: in vivo
[12] = target: T1, Signal transducer and activator of transcription 1 (Mus musculus) (UniProt P42225); assay: Inhibition of STAT1 phosphorylation in mouse BAF3 cells at 1000 nM after 2 hrs by Western blot analysis; format: cell-based
T1 sequence (whole entry): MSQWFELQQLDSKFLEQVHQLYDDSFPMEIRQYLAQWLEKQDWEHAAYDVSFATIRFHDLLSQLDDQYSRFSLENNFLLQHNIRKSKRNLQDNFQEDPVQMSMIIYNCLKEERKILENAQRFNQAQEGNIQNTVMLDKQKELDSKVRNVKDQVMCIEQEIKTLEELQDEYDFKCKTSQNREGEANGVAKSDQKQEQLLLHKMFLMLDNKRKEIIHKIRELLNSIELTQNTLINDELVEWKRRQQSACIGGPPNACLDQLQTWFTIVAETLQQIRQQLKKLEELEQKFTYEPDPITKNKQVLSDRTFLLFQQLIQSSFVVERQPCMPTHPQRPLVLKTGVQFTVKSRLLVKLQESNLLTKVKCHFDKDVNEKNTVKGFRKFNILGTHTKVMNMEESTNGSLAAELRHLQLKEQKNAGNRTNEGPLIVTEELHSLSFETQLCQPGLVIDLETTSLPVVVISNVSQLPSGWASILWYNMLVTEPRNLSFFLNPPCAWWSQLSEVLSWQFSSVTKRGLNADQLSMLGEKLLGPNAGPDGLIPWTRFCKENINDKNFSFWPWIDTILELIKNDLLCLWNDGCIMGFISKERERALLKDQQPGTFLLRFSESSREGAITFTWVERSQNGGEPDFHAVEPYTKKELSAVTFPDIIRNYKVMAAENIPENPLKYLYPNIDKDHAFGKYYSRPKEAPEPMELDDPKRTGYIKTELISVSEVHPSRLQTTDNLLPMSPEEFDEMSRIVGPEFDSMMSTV

SET-2 [13] = assay: Antitumor activity against human SET2 cells xenografted in NOD/SCID mouse assessed as tumor growth inhibition at 30 mg/kg, po qd administered for 16 days and measured every 2 days relative to control; format: functional; conditions: SET-2, po, 384 h, time 16 day, read-out: TGI
SET-2 [14] = assay: Induction of apoptosis in human SET-2 cells assessed as necrotic cells at 0.05 uM incubated for 24 hrs by Annexin V/PI staining based flow cytometric analysis (reference value: 0.78%); format: functional
[15] = target: Receptor-type tyrosine-protein kinase FLT3 (Homo sapiens) (UniProt P36888); assay: Inhibition of FLT3 in human SET2 cells assessed as decrease in FLT3 phosphorylation at 1 to 1000 nM after 2 hrs by Western blot analysis; format: cell-based; conditions: dose 1-1000 nM
[16] = Selectivity index, ratio of IC50 for inhibition of human JAK1 (866 to end residues) to IC50 for inhibition of recombinant human JAK2 (808 to end residues)
[17] = target: Non-receptor tyrosine-protein kinase TYK2 (Homo sapiens, UniProt P29597); assay: Inhibition of recombinant human TYK2 (875 to end residues) using GGMEDIYFEFMGGKKK as substrate incubated for 40 mins in presence of [gamma33P]ATP by scintillation counting based radiometry assay
[18] = Apparent clearance in Sprague-Dawley rat at 5 mg/kg, po administered via gavage measured upto 24 hrs by LC/MS/MS analysis; format: ADME, organism-based; conditions: in vivo, read-out: CL(app) (converted)
SET-2 [19] = assay: Antitumor activity against human SET2 cells xenografted in NOD/SCID mouse assessed as tumor growth inhibition at 15 mg/kg, po qd administered for 16 days and measured every 2 days relative to control; format: functional; conditions: SET-2, po, 384 h, time 16 day, read-out: TGI
[20] = Selectivity index, ratio of IC50 for inhibition of recombinant human FLT3 D835Y mutant (564 to end residues) to IC50 for inhibition of recombinant human JAK2 (808 to end residues)
[21] = Metabolic stability in rat liver microsomes assessed as half-life; format: ADME, Microsome
SET-2 [22] = assay: Induction of apoptosis in human SET-2 cells assessed as live cells at 0.8 uM incubated for 24 hrs by Annexin V/PI staining based flow cytometric analysis (reference value: 96.23 %); format: functional
Vero = assay: Cytotoxicity against African green monkey Vero cells assessed as reduction in cell viability incubated for 72 hrs by MTT assay; format: cell-based; conditions: Chlorocebus sabaeus
[23] = Intrinsic clearance in rat liver microsomes; format: ADME, Microsome; conditions: read-out: CLH (converted)
[24] = Toxicity in Balb/c mouse assessed as effect on hematocrit at 30 to 60 mg/kg, po administered daily for 14 days; format: organism-based; conditions: in vivo, 336 h, dose 30-60 mg/kg, time 14 day
[25] = Apparent clearance in Sprague-Dawley rat at 5 mg/kg, iv administered […] measured upto 24 hrs by LC/MS/MS analysis; format: ADME, organism-based; conditions: in vivo, read-out: CL(app) (converted)

Sequence of Non-receptor tyrosine-protein kinase TYK2 (P29597 whole entry): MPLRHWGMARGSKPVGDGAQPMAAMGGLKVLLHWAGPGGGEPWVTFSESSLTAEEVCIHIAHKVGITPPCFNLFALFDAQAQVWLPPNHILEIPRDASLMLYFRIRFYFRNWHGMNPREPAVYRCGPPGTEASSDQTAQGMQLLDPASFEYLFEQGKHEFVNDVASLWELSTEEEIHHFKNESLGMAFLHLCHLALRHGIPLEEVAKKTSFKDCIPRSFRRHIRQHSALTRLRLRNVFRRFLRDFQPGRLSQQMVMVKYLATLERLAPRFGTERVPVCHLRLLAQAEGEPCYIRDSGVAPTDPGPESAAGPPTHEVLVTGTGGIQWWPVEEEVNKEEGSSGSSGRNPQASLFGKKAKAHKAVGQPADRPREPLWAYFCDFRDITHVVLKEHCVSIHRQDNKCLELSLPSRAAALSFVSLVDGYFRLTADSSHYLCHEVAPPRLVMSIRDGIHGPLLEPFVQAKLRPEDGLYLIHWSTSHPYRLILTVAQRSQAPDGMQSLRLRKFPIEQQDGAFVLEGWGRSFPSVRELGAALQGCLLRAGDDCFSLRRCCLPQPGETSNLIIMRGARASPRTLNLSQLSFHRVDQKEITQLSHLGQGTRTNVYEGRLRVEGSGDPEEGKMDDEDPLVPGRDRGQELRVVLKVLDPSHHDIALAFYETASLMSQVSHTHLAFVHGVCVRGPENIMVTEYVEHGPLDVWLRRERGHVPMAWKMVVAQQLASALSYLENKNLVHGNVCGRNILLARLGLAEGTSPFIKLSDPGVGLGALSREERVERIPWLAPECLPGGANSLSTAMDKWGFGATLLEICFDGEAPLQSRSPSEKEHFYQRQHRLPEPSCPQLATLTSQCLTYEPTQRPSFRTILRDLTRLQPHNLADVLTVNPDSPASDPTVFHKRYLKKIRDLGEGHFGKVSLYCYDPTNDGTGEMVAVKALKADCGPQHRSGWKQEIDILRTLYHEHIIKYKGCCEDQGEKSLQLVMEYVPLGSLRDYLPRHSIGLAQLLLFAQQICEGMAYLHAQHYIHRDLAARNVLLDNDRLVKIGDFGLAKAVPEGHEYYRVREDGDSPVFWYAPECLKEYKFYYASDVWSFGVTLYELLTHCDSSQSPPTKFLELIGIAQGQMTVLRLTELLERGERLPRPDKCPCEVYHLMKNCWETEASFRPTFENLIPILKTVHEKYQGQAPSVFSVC
Sequence of Tyrosine-protein kinase JAK2 (Homo sapiens), O60674 [V617F] (O60674 whole entry V617F): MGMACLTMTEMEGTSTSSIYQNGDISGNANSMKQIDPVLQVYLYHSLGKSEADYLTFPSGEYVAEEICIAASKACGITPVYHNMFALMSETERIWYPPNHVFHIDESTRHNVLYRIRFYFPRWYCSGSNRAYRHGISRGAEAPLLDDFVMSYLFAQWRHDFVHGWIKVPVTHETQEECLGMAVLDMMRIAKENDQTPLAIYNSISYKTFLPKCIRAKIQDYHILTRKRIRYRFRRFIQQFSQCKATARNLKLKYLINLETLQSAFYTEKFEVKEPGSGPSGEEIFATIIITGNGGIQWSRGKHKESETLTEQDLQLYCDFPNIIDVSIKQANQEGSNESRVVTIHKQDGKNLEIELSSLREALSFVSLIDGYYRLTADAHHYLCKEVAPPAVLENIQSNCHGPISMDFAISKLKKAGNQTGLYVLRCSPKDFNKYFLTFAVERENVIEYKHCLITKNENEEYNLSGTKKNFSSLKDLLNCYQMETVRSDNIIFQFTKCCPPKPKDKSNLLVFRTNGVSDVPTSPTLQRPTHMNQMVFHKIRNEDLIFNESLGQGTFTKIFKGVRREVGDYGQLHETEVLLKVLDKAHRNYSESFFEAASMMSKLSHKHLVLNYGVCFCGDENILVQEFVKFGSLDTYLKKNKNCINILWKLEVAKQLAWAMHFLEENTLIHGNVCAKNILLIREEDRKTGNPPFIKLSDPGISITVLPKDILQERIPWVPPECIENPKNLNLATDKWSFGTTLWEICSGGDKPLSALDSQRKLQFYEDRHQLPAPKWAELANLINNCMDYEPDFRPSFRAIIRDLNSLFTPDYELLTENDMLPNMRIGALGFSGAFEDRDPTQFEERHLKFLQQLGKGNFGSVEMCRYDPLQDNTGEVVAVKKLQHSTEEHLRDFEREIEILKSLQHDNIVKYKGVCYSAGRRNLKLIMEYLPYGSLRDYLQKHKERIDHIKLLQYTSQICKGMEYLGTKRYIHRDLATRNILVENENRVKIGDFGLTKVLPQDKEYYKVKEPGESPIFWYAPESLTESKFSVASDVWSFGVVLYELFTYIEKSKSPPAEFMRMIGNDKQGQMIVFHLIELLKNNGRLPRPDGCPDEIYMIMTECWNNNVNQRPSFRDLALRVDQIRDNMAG
Sequence of Receptor-type tyrosine-protein kinase FLT3 (Homo sapiens) (P36888 whole entry): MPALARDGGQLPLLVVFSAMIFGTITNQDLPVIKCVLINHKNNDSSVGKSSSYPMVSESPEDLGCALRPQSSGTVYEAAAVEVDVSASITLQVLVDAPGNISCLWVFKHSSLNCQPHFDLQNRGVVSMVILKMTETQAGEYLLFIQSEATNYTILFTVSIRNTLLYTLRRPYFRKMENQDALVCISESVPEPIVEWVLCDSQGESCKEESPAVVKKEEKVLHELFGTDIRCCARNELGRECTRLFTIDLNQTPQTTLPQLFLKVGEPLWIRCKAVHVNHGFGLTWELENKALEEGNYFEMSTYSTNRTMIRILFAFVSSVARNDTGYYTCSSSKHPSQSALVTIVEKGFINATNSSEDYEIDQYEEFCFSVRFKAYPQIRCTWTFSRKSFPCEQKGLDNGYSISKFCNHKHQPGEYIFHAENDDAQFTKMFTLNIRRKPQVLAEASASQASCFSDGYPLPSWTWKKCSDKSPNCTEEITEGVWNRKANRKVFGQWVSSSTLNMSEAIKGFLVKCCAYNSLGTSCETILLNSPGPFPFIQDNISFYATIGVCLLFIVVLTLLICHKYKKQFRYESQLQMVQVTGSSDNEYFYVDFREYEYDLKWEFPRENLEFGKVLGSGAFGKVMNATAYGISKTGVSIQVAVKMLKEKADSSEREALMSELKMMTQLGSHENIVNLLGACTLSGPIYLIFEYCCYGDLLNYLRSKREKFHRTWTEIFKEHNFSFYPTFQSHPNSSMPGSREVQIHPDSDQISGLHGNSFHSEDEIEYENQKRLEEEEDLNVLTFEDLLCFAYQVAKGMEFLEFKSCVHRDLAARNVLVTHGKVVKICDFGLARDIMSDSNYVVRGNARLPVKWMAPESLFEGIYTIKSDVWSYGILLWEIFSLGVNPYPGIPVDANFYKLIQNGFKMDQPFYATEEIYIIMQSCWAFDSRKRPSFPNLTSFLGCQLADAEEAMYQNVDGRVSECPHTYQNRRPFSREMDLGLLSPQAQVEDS

Cc1cnc(Nc2ccc3c(c2)CCN(C(=O)/C=C/CN(C)C)C3)nc1-c1cnn(C(C)C)c1
Activity (SET-2 [1]): 84.92%
inhibition [2]: Dose-dependent effect
Activity (SET-2 [3]): 9.12%
Activity [4]: Toxic
Activity (SET-2 [5]): 1.37%
inhibition in vivo at 60 mg/kg (SET-2 [6]): 82.3%
Activity (SET-2 [7]): 94.6%
Activity (SET-2 [8]): Dose-dependent effect
Activity (SET-2 [9]): 5.92%
Activity (SET-2 [10]): 4.04%
Tmax [11]: 54 min
inhibition [12]: inactive
inhibition in vivo at 30 mg/kg (SET-2 [13]): 67.8%
Activity (SET-2 [14]): 0.35%
inhibition [15]: inactive
Ratio IC50 [16]: 14
IC50 [17]: 0.075 µM
CL/F [18]: 480 mL/min/kg
inhibition in vivo at 15 mg/kg (SET-2 [19]): 51.4%
Ratio IC50 [20]: 20.7
half-life [21]: 54.6 min
Activity (SET-2 [22]): 49.33%
IC50 (Vero): 6.75 µM
CLint scaled [23]: 423 mL/min/kg
Activity [24]: Toxic
clearance [25]: 83.5 mL/min/kg
